# Laboratory results taken from PubChem BioAssay (NCI).
#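 Cultured in 96-well plates, cells were exposed to test compound for 48 hours across five concentrations. Abbreviation: GI50, concentration required for 50% inhibition of growth. Definition used: TGI = concentration required for complete inhibition of growth.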
# Experiments:
# Experiment in all cases: NCI tumour cell line growth inhibition, 48 h
# 786-0 renal = system: 786-0 renal
# A498 renal = system: A498 renal
# A549 NSCLC = system: A549 NSCLC
# ACHN renal = system: ACHN renal
# BT-549 breast = system: BT-549 breast
# CAKI-1 renal = system: CAKI-1 renal
# CCRF-CEM leukemia = system: CCRF-CEM leukemia
# COLO 205 colon = system: COLO 205 colon
# DU-145 prostate = system: DU-145 prostate
# EKVX NSCLC = system: EKVX NSCLC
# HCC-2998 colon = system: HCC-2998 colon
# HCT-116 colon = system: HCT-116 colon
# HCT-15 colon = system: HCT-15 colon
# HL-60(TB) leukemia = system: HL-60(TB) leukemia
# HS 578T breast = system: HS 578T breast
# HT29 colon = system: HT29 colon
# K-562 leukemia = system: K-562 leukemia
# KM12 colon = system: KM12 colon
# LOX IMVI melanoma = system: LOX IMVI melanoma
# M14 melanoma = system: M14 melanoma
# MALME-3M melanoma = system: MALME-3M melanoma
# MDA-MB-231 breast = system: MDA-MB-231 breast
# MDA-MB-435 = system: MDA-MB-435
# MOLT-4 leukemia = system: MOLT-4 leukemia
# NCI-H226 lung = system: NCI-H226 lung
# NCI-H23 lung = system: NCI-H23 lung
# NCI-H460 lung = system: NCI-H460 lung
# NCI/ADR-RES ovarian = system: NCI/ADR-RES ovarian
# OVCAR-3 ovarian = system: OVCAR-3 ovarian
# OVCAR-4 ovarian = system: OVCAR-4 ovarian
# OVCAR-5 ovarian = system: OVCAR-5 ovarian
# PC-3 prostate = system: PC-3 prostate
# RPMI-8226 leukemia = system: RPMI-8226 leukemia
# SF-268 CNS = system: SF-268 CNS
# SF-295 CNS = system: SF-295 CNS
# SF-539 CNS = system: SF-539 CNS
# SK-MEL-28 melanoma = system: SK-MEL-28 melanoma
# SK-MEL-5 melanoma = system: SK-MEL-5 melanoma
# SK-OV-3 ovarian = system: SK-OV-3 ovarian
# SN12C renal = system: SN12C renal
# SNB-75 CNS = system: SNB-75 CNS
# SR leukemia = system: SR leukemia
# SW-620 colon = system: SW-620 colon
# T-47D breast = system: T-47D breast
# TK-10 renal = system: TK-10 renal
# UACC-257 melanoma = system: UACC-257 melanoma
# UACC-62 melanoma = system: UACC-62 melanoma
# UO-31 renal = system: UO-31 renal
smiles,measurement,setting,value
COc1cc2nc(Cl)nc(Nc3cccc(C4=Nc5c(N)nc(N)nc5NC(c5ccc(F)cc5)C4)c3)c2cc1OC (stereo unspecified),GI50,786-0 renal,1.56 µM
same,TGI,786-0 renal,2.99 µM
same,GI50,A498 renal,1.01 µM
same,TGI,A498 renal,2.47 µM
same,GI50,A549 NSCLC,2.64 µM
same,TGI,A549 NSCLC,7.82 µM
same,GI50,ACHN renal,1.74 µM
same,TGI,ACHN renal,3.22 µM
same,GI50,BT-549 breast,2.29 µM
same,TGI,BT-549 breast,4.36 µM
same,GI50,CAKI-1 renal,1.61 µM
same,TGI,CAKI-1 renal,3.27 µM
same,GI50,CCRF-CEM leukemia,1.05 µM
same,TGI,CCRF-CEM leukemia,4.14 µM
same,GI50,COLO 205 colon,1.77 µM
same,TGI,COLO 205 colon,3.51 µM
same,GI50,DU-145 prostate,1.77 µM
same,TGI,DU-145 prostate,3.44 µM
same,GI50,EKVX NSCLC,1.5 µM
same,TGI,EKVX NSCLC,3.99 µM
same,GI50,HCC-2998 colon,1.92 µM
same,TGI,HCC-2998 colon,3.48 µM
same,GI50,HCT-116 colon,1.76 µM
same,TGI,HCT-116 colon,3.34 µM
same,GI50,HCT-15 colon,1.96 µM
same,TGI,HCT-15 colon,4.27 µM
same,GI50,HL-60(TB) leukemia,1.95 µM
same,TGI,HL-60(TB) leukemia,4.09 µM
same,GI50,HS 578T breast,1.98 µM
same,TGI,HS 578T breast,4.53 µM
same,GI50,HT29 colon,2.05 µM
same,TGI,HT29 colon,4.38 µM
same,GI50,K-562 leukemia,1.96 µM
same,TGI,K-562 leukemia,4.68 µM
same,GI50,KM12 colon,1.88 µM
same,TGI,KM12 colon,3.61 µM
same,GI50,LOX IMVI melanoma,1.78 µM
same,TGI,LOX IMVI melanoma,3.51 µM
same,GI50,M14 melanoma,1.86 µM
same,TGI,M14 melanoma,3.7 µM
same,GI50,MALME-3M melanoma,2.01 µM
same,TGI,MALME-3M melanoma,3.76 µM
same,GI50,MDA-MB-231 breast,1.49 µM
same,TGI,MDA-MB-231 breast,3.03 µM
same,GI50,MDA-MB-435,1.66 µM
same,TGI,MDA-MB-435,3.11 µM
same,GI50,MOLT-4 leukemia,1.77 µM
same,TGI,MOLT-4 leukemia,5.45 µM
same,GI50,NCI-H226 lung,3.22 µM
same,TGI,NCI-H226 lung,16.6 µM
same,GI50,NCI-H23 lung,2 µM
same,TGI,NCI-H23 lung,4.73 µM
same,GI50,NCI-H460 lung,1.91 µM
same,TGI,NCI-H460 lung,3.82 µM
same,GI50,NCI/ADR-RES ovarian,6.07 µM
same,TGI,NCI/ADR-RES ovarian,> 100 µM
same,GI50,OVCAR-3 ovarian,1.85 µM
same,TGI,OVCAR-3 ovarian,3.55 µM
same,GI50,OVCAR-4 ovarian,1.63 µM
same,TGI,OVCAR-4 ovarian,3.38 µM
same,GI50,OVCAR-5 ovarian,1.79 µM
same,TGI,OVCAR-5 ovarian,3.55 µM
same,GI50,PC-3 prostate,2.17 µM
same,TGI,PC-3 prostate,6.68 µM
same,GI50,RPMI-8226 leukemia,1.77 µM
same,TGI,RPMI-8226 leukemia,4.42 µM
same,GI50,SF-268 CNS,1.68 µM
same,TGI,SF-268 CNS,3.68 µM
same,GI50,SF-295 CNS,1.82 µM
same,TGI,SF-295 CNS,3.5 µM
same,GI50,SF-539 CNS,1.53 µM
same,TGI,SF-539 CNS,2.93 µM
same,GI50,SK-MEL-28 melanoma,1.62 µM
same,TGI,SK-MEL-28 melanoma,3.04 µM
same,GI50,SK-MEL-5 melanoma,1.65 µM
same,TGI,SK-MEL-5 melanoma,3.02 µM
same,GI50,SK-OV-3 ovarian,25.7 µM
same,TGI,SK-OV-3 ovarian,59.3 µM
same,GI50,SN12C renal,1.72 µM
same,TGI,SN12C renal,3.48 µM
same,GI50,SNB-75 CNS,1.13 µM
same,TGI,SNB-75 CNS,2.42 µM
same,GI50,SR leukemia,1.96 µM
same,TGI,SR leukemia,4.8 µM
same,GI50,SW-620 colon,1.76 µM
same,TGI,SW-620 colon,3.6 µM
same,GI50,T-47D breast,1.93 µM
same,TGI,T-47D breast,4.64 µM
same,GI50,TK-10 renal,1.95 µM
same,TGI,TK-10 renal,3.86 µM
same,GI50,UACC-257 melanoma,1.96 µM
same,TGI,UACC-257 melanoma,3.94 µM
same,GI50,UACC-62 melanoma,1.76 µM
same,TGI,UACC-62 melanoma,3.31 µM
same,GI50,UO-31 renal,1.55 µM
same,TGI,UO-31 renal,3.54 µM
